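Test compounds were applied to cells in 96-well plates for 48 hours at 5 doses. GI50 is the concentration that inhibits growth by half.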 Calls of active or inactive are those of the source. No stated cut-off is given here; in the data, active = GI50 up to about 1.1 µM and inactive = higher.
Legend:
Test in all cases: growth of human tumour cells (NCI), 48 h
[1] = tested on: BT-549
[2] = tested on: SF-268
[3] = tested on: SK-MEL-2
[4] = tested on: HL-60
[5] = tested on: SW-620
[6] = tested on: K562
[7] = tested on: COLO 205
[8] = tested on: OVCAR-8
[9] = tested on: OVCAR-4
[10] = tested on: NCI-H23
[11] = tested on: MDA-N
[12] = tested on: SK-MEL-28
[13] = tested on: SK-OV-3
[14] = tested on: OVCAR-5
[15] = tested on: HCC 2998
[16] = tested on: RXF 393
[17] = tested on: SNB-19
[18] = tested on: NCI/ADR-RES
[19] = tested on: HCT-116
[20] = tested on: SF-295

SMILES | GI50 [1] | GI50 [2] | GI50 [3] | GI50 [4] | GI50 [5] | GI50 [6] | GI50 [7] | GI50 [8] | GI50 [9] | GI50 [10] | GI50 [11] | GI50 [12] | GI50 [13] | GI50 [14] | GI50 [15] | GI50 [16] | GI50 [17] | GI50 [18] | GI50 [19] | GI50 [20]
O=C1/C(=C/c2ccc(F)cc2)CNC/C1=C\c1ccc(F)cc1 | 1.01 µM (active) | 0.818 µM (active) | 12 µM (inactive) | 0.383 µM (active) | 0.364 µM (active) | 0.245 µM (active) | 1.44 µM (inactive) | 2.07 µM (inactive) | 2.09 µM (inactive) | 1.5 µM (inactive) | 1.95 µM (inactive) | 1.05 µM (active) | 6.92 µM (inactive) | 2.88 µM (inactive) | 0.214 µM (active) | 1.82 µM (inactive) | 1.59 µM (inactive) | 2.95 µM (inactive) | 0.27 µM (active) | 2.09 µM (inactive)
CC(=O)NC1c2ccccc2C(C)(C)C12CCC1(CC2)OCCO1 (stereo not given) | > 100 µM (inactive) | > 100 µM (inactive) | > 100 µM (inactive) | > 100 µM (inactive) | > 100 µM (inactive) | > 100 µM (inactive) | > 100 µM (inactive) | > 100 µM (inactive) | > 100 µM (inactive) | > 100 µM (inactive) | > 100 µM (inactive) | > 100 µM (inactive) | > 10 µM (inactive) | > 100 µM (inactive) | > 100 µM (inactive) | 37.9 µM (inactive) | > 100 µM (inactive) | > 100 µM (inactive) | > 100 µM (inactive) | > 100 µM (inactive)
CCOC(=O)CN1C(=O)c2c(NC(=O)C(=O)O)cccc2S1(=O)=O | > 100 µM (inactive) | > 100 µM (inactive) | > 100 µM (inactive) | > 100 µM (inactive) | > 100 µM (inactive) | > 100 µM (inactive) | > 100 µM (inactive) | > 100 µM (inactive) | > 100 µM (inactive) | > 100 µM (inactive) | > 100 µM (inactive) | > 100 µM (inactive) | > 100 µM (inactive) | > 100 µM (inactive) | > 100 µM (inactive) | > 100 µM (inactive) | > 100 µM (inactive) | > 100 µM (inactive) | > 100 µM (inactive) | > 100 µM (inactive)
c1ccc(C(c2cccc3c2ccc2ccccc23)C(c2ccccc2)c2cccc3c2ccc2ccccc23)cc1 (stereo not given) | > 100 µM (inactive) | > 100 µM (inactive) | > 100 µM (inactive) | 65.8 µM (inactive) | > 100 µM (inactive) | > 100 µM (inactive) | > 100 µM (inactive) | > 100 µM (inactive) | > 100 µM (inactive) | > 100 µM (inactive) | > 100 µM (inactive) | > 100 µM (inactive) | > 100 µM (inactive) | > 100 µM (inactive) | > 100 µM (inactive) | > 100 µM (inactive) | > 100 µM (inactive) | > 100 µM (inactive) | > 100 µM (inactive) | > 100 µM (inactive)
O=C1OC(=O)C2=C1C(c1cccs1)C=C(c1cccnc1)N2c1ccncc1 (stereo not given) | 15.5 µM (inactive) | 16.6 µM (inactive) | 15.4 µM (inactive) | 11 µM (inactive) | 20.7 µM (inactive) | 9.12 µM (inactive) | 17.5 µM (inactive) | 21.6 µM (inactive) | 20 µM (inactive) | 17.6 µM (inactive) | 17.8 µM (inactive) | 24.3 µM (inactive) | 24.9 µM (inactive) | 12.2 µM (inactive) | 14.1 µM (inactive) | 16.2 µM (inactive) | 18 µM (inactive) | 29.4 µM (inactive) | 14.3 µM (inactive) | 20.9 µM (inactive)
COc1cccc(NC(=O)CC(=O)N2N=C(C)C(/N=N/c3ccc(C(=O)O)cc3)C2=O)c1 (stereo not given) | > 100 µM (inactive) | > 100 µM (inactive) | > 100 µM (inactive) | > 100 µM (inactive) | > 100 µM (inactive) | > 100 µM (inactive) | > 100 µM (inactive) | > 100 µM (inactive) | > 100 µM (inactive) | > 100 µM (inactive) | > 100 µM (inactive) | > 100 µM (inactive) |  | > 100 µM (inactive) | > 100 µM (inactive) | > 100 µM (inactive) | > 100 µM (inactive) | > 100 µM (inactive) | > 100 µM (inactive) | > 100 µM (inactive)
O=C1CSC2(CC(/C=C/c3ccccc3)=NN2c2cccc(S(=O)(=O)O)c2)N1c1nc2ccccc2s1 (stereo not given) | 24.8 µM (inactive) |  | 22.6 µM (inactive) | 27 µM (inactive) | 29.6 µM (inactive) | 35.1 µM (inactive) | > 100 µM (inactive) | 17.9 µM (inactive) | 20.9 µM (inactive) | 22 µM (inactive) | 35.2 µM (inactive) | 62.4 µM (inactive) |  | 27.8 µM (inactive) | 59.4 µM (inactive) | 22.1 µM (inactive) | 21.5 µM (inactive) | 34.1 µM (inactive) | 36.8 µM (inactive) | 
COc1ccc2c(C)cc(C)nc2n1 | > 100 µM (inactive) |  | > 100 µM (inactive) | > 100 µM (inactive) | > 100 µM (inactive) | > 100 µM (inactive) | > 100 µM (inactive) | > 100 µM (inactive) | > 100 µM (inactive) | > 100 µM (inactive) | > 100 µM (inactive) | > 100 µM (inactive) | > 100 µM (inactive) | > 100 µM (inactive) | > 100 µM (inactive) | > 100 µM (inactive) | > 100 µM (inactive) | > 100 µM (inactive) | > 100 µM (inactive) | > 100 µM (inactive)
Cn1c(-c2ccccc2)cc(-c2cccs2)c1-c1ccsc1 | > 100 µM (inactive) | > 100 µM (inactive) | > 100 µM (inactive) | > 100 µM (inactive) | > 100 µM (inactive) | > 100 µM (inactive) | > 100 µM (inactive) | > 100 µM (inactive) | > 100 µM (inactive) | > 100 µM (inactive) | > 100 µM (inactive) |  | > 100 µM (inactive) | > 100 µM (inactive) | > 100 µM (inactive) | > 100 µM (inactive) | > 100 µM (inactive) | > 100 µM (inactive) | 61.5 µM (inactive) | > 100 µM (inactive)
[O-][n+]1c(CN2CCCCC2)nc2cccc3c2c1-c1ccccc1-3 | 48.3 µM (inactive) |  | 23 µM (inactive) | > 100 µM (inactive) | 28.8 µM (inactive) | 77.6 µM (inactive) | 16.9 µM (inactive) | 22.8 µM (inactive) | 31.3 µM (inactive) | 20.3 µM (inactive) | 22.4 µM (inactive) | 68.5 µM (inactive) | 26.1 µM (inactive) | 21.3 µM (inactive) | 15 µM (inactive) | 13.7 µM (inactive) | 23.9 µM (inactive) | 22.4 µM (inactive) | 12.8 µM (inactive) | 28.7 µM (inactive)
OC[C@H]1CCCC1O (stereo not given in full) | > 100 µM (inactive) | > 100 µM (inactive) | > 100 µM (inactive) | > 100 µM (inactive) | > 100 µM (inactive) | > 100 µM (inactive) | > 100 µM (inactive) | > 100 µM (inactive) | > 100 µM (inactive) | > 100 µM (inactive) | > 100 µM (inactive) | > 100 µM (inactive) |  | > 100 µM (inactive) | > 100 µM (inactive) | > 100 µM (inactive) | > 100 µM (inactive) | > 100 µM (inactive) | > 100 µM (inactive) | > 100 µM (inactive)
C/C=C(\C)[C@@H](O)C(=O)O[C@@H]1CC(C(C)(C)O)[C@](C)(CCC(=O)OC)[C@H]2[C@H](OC(=O)[C@H](O)[C@H](C)CC)C[C@]3(C)C(=CC[C@H]3[C@H]3CO[C@H](C=C(C)C)C3)[C@]12C (stereo not given in full) | 18 µM (inactive) | 18.5 µM (inactive) | 17.6 µM (inactive) | 16.7 µM (inactive) | 22.7 µM (inactive) | 17.8 µM (inactive) |  | 17.7 µM (inactive) | 19.8 µM (inactive) | 18.4 µM (inactive) | 20 µM (inactive) | 21.6 µM (inactive) |  | 20.5 µM (inactive) | 16.2 µM (inactive) | 16.4 µM (inactive) |  | 16.4 µM (inactive) | 18 µM (inactive) | 35.4 µM (inactive)
NC(CCCCNc1ccn(C2OC(CO)C(O)C2O)c(=O)n1)C(=O)O (stereo not given) | > 100 µM (inactive) | > 100 µM (inactive) | 77.8 µM (inactive) | > 100 µM (inactive) | > 100 µM (inactive) | > 100 µM (inactive) | > 100 µM (inactive) | 73.1 µM (inactive) | > 100 µM (inactive) |  | > 100 µM (inactive) | > 100 µM (inactive) |  | > 100 µM (inactive) | 76.6 µM (inactive) | > 100 µM (inactive) | > 100 µM (inactive) | > 100 µM (inactive) |  | 30.6 µM (inactive)
CC1(C)O[C@H]2OC(CO[Si](C)(C)C(C)(C)C)C(N=[N+]=[N-])[C@H]2O1 (stereo not given in full) | 21.6 µM (inactive) | 20.7 µM (inactive) | 17.2 µM (inactive) | 7.31 µM (inactive) | 21.5 µM (inactive) | 13.3 µM (inactive) |  | 20.1 µM (inactive) | 26.3 µM (inactive) | 19.2 µM (inactive) | 23.7 µM (inactive) | 24.7 µM (inactive) | 14 µM (inactive) | 20.5 µM (inactive) | 17.8 µM (inactive) | 16.6 µM (inactive) | 17.7 µM (inactive) | 18.1 µM (inactive) | 15.6 µM (inactive) | 11.8 µM (inactive)

From ChEMBL document CHEMBL1201862, “PubChem BioAssay data set” (2004)
